Data from ChEMBL document CHEMBL5465560, “Selectivity Literature for EUbOPEN Chemogenomic Library” (2024).

Columns and labels:
[1] = biological target: T1, Protein kinase C epsilon type (Homo sapiens) (UniProt Q02156); experiment: Selectivity interaction (KinomeScan (DiscoverX)) EUB0001079a PRKCE; conditions: at 1 µM
T1 sequence (whole entry): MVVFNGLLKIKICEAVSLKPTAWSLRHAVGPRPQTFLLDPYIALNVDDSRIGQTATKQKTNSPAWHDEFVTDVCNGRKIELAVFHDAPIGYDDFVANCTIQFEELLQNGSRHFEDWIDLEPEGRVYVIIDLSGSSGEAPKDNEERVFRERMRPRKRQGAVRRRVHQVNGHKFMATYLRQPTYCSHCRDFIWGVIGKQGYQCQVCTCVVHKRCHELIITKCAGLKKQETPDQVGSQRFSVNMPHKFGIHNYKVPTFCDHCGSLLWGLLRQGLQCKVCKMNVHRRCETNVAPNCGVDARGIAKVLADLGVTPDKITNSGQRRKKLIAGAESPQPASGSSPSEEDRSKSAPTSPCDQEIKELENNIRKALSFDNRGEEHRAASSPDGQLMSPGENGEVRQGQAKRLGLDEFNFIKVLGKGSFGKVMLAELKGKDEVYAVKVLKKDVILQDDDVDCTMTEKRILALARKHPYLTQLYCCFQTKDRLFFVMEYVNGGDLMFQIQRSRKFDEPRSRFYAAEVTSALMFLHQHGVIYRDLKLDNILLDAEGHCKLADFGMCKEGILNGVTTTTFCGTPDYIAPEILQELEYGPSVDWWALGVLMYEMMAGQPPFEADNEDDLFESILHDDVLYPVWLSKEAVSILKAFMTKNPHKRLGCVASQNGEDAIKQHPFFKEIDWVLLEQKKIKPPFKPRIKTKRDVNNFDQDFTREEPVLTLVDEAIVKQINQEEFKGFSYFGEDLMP

[2] = biological target: Bromodomain-containing protein 4 (Homo sapiens, UniProt O60885); experiment: Selectivity interaction (Human bromodomain panel (DSF assay)) EUB0000233b BRD4
[3] = biological target: Serine/threonine-protein kinase PAK 3 (Homo sapiens) (UniProt O75914); experiment: Selectivity interaction (KinomeScan (DiscoverX)) EUB0000045b PAK3
[4] = biological target: T2, Serine/threonine-protein kinase ULK1 (Homo sapiens) (UniProt O75385); experiment: Selectivity interaction (KinomeScan (DiscoverX)) EUB0000655a ULK1; conditions: at 10 µM
T2 sequence (whole entry): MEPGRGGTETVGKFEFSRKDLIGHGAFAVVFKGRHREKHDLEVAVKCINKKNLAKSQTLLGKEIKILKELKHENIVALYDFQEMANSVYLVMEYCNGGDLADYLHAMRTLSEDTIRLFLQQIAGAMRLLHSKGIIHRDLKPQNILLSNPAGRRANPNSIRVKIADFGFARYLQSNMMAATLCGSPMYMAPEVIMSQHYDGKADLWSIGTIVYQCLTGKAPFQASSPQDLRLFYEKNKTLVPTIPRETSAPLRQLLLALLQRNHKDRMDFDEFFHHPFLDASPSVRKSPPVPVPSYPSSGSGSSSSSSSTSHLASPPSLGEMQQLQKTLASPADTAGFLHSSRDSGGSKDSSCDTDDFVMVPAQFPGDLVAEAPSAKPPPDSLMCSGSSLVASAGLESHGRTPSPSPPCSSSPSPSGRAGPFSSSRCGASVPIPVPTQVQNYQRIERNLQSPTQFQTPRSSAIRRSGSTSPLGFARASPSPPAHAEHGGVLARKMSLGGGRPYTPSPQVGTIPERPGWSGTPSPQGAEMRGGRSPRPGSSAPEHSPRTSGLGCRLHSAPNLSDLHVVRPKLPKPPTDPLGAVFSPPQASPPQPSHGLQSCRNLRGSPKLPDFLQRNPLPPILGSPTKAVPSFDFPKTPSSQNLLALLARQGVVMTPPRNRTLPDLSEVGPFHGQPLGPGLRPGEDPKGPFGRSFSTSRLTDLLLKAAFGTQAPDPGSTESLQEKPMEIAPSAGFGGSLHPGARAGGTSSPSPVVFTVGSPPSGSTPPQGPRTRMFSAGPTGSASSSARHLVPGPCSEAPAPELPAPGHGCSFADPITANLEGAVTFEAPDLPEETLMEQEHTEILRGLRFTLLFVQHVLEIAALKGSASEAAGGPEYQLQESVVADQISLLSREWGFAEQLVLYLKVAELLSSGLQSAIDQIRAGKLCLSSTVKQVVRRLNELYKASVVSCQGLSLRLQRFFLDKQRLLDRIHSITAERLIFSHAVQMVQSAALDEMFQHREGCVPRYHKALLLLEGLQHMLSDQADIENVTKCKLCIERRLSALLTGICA

[5] = biological target: T3, Beta-adrenergic receptor kinase 1 (Homo sapiens) (UniProt P25098); experiment: Selectivity interaction (SelectScreen profiling (Invitrogen)) EUB0000607a ADRBK1; conditions: at 2 µM
T3 sequence (whole entry): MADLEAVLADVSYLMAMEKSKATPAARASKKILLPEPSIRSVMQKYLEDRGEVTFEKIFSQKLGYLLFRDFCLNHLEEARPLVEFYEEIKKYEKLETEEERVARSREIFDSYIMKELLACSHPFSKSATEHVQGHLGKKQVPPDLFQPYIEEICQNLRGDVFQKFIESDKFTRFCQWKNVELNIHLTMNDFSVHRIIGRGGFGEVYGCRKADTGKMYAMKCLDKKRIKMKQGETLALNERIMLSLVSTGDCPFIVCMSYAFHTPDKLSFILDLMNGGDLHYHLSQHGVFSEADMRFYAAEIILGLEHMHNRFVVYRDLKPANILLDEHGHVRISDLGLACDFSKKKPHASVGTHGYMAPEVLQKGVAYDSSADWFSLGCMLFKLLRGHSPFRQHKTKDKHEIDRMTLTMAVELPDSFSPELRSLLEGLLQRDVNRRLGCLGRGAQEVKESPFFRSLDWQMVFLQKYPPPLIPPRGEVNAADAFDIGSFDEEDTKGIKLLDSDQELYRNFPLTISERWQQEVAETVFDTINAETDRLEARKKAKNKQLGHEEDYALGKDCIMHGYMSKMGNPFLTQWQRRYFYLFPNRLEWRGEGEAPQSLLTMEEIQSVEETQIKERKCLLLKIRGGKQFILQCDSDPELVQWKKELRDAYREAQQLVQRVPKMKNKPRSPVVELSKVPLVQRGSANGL

Chain of Serine/threonine-protein kinase PAK 3 (Homo sapiens) (O75914 whole entry, looked up): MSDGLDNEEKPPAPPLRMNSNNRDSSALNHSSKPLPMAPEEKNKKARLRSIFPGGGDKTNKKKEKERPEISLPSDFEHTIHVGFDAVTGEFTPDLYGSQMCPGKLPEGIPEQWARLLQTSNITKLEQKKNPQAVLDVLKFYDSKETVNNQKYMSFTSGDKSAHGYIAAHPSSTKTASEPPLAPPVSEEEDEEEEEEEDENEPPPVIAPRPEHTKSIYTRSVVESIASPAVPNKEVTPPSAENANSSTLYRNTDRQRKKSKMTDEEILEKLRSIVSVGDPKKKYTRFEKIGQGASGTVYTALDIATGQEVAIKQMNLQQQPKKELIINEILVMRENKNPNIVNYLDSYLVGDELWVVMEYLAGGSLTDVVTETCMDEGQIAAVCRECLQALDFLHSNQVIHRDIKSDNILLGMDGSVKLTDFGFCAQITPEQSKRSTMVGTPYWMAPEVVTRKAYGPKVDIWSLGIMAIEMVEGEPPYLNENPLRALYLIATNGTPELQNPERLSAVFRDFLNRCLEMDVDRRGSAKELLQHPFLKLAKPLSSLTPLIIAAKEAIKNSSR

Nc1cnc(N2CCc3cc(S(=O)(=O)Nc4c(F)cc(Cl)cc4F)cc(N4CCCC4=O)c32)nc1 [TP-020n]
% of control [1]: 100%

CN(C)CCCOc1ccc(-c2cc(NCCCn3cccn3)nc(S(C)(=O)=O)n2)cc1
dTM [2]: < 2 K

C=CC(=O)Nc1cc(-n2c(=O)ccc3cnc4ccc(-c5ccc(NS(C)(=O)=O)cc5)cc4c32)ccc1C
% of control ([3]; at 1 µM): 92%
% of control ([3]; at 10 µM): 100%

CN(C)CCOc1ccc(-c2nc(-c3ccncc3)c(-c3ccc4c(c3)CC/C4=N\O)[nH]2)cc1
% of control [4]: 98%

CNC(=O)Nc1ccc(-c2nc(N3CC4CCC(C3)O4)c3cnn(C4CCC5(CC4)OCCO5)c3n2)cc1
% of inhibition [5]: -1%
